Consider one molecule from patent US9050334B2, “MIF inhibitors and their uses” (INNOV88 LLC, priority 2010, dated 2015).

Each structure is given as a SMILES string. pIC50: −log10 of the molar value. Bounds are passed on as bounds.

Experiment [1] relates to rhMIF-stimulated PBMCs. The experiment is described as follows: IL-6 production in rhMIF-stimulated PBMCs. The format is cell-based. To be noted: PBMC; human PBMCs, 25 μM compound preincubated 1 hour, rhMIF stimulation, 24 hours. Here is the method: Effect of Candidate Compounds on Cytokine Production from Human Cells: Mono-Mac-6 Cells: The cellular efficacy of the inhibitors is determined using the human monocytic cell line, Mono-Mac-6 cells (MM6 cells) as it has been shown that MIF induces the production of inflammatory mediators, including tumor necrosis factor-α (TNF-α) interleukin (IL)-1β, IL-6, IL-8, interferon-γ (IFN-γ) and prostaglandin E2 (PGE2) in these cells (Schwartz et al., 2009). Recombinant human MIF (rhMIF) will be purchased from R&D Systems (Minneapolis, Minn.) or generated in house. To induce the production of inflammatory mediators, MM6 cells will be plated at a final concentration of 5×10^5 cells/ml in RPMI 1640 medium containing 1% heat-inactivated low-pyrogen fetal bovine serum, 2 mM GlutaMAX-1,1% non-essential amino acids, 1% sodium pyruvate, 100 units/ml penicillin G and 100 μg/ml streptomycin (Gibco BRL Life Technologies). Cells will be stimulated with 100 ng/ml rhMIF with or without inhibitor for 20 h at 37° C. with 5% CO2. The supernatants were stored at −20° C. until they were assayed. The levels of inflammatory mediators will be determined using commercial ELISA kits from R&D Systems (Minneapolis, Minn.). […] Cytotoxicity is assessed using the MTT [3-(4,5-dimethylthiazol-2-yl)-2,5-diphenyl tetrazolium bromide assay. […] Interleukin 6 levels in culture supernatants are quantitated by ELISA. […]

Experiment [2] concerns the target T1, Native human MIF (Homo sapiens, UniProt P14174).
T1 sequence (P14174 2-115 limits assumed): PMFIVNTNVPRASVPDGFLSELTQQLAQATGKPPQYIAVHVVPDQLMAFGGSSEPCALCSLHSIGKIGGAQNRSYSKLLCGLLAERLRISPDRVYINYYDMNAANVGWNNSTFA
The experiment is described as follows: MIF tautomerase activity assay with hydroxyphenyl pyruvic acid (HPP) substrate. Format: biochemical. To be noted: absorbance at 300 nm. Here is the method:
The ability of candidate compounds to inhibit this tautomerase activity are quantitated by using hydroxyphenyl pyruvic acid (HPP) as a substrate (Ouertatani-Sakouhi et al., 2010). The ability of compounds to inhibit the tautomerase activity can be quantitated by following the increase in absorbance due to the enzymatic formation of the HPP enol-borate complex at 300 nm in the absence and presence of a test compound. The IC50 value of compounds are determined by plotting the initial velocities determined at 300 nm as a function of a test compound's concentration. Assays are carried out in a 96 or 384 well plate format. Representative MIF inhibitors were tested in the assay described above and the results tabulated in Table 1 wherein “A” represents≦10 μM; “B” represents>10 μM and <100 μM; “C” represents>100 μM and ≦200 μM; and “D” represents>200 μM.

Experiment [3] relates to LPS-stimulated PBMCs. Kind of experiment: TNF-α production in LPS-stimulated PBMCs. The format is cell-based. To be noted: PBMC; human PBMCs, 25 μM compound preincubated 1 hour, LPS stimulation, 24 hours. Here is the method:
(§1) Effect of Candidate Compounds on Cytokine Production from Human Cells: Mono-Mac-6 Cells: The cellular efficacy of the inhibitors is determined using the human monocytic cell line, Mono-Mac-6 cells (MM6 cells) as it has been shown that MIF induces the production of inflammatory mediators, including tumor necrosis factor-α (TNF-α) interleukin (IL)-1β, IL-6, IL-8, interferon-γ (IFN-γ) and prostaglandin E2 (PGE2) in these cells (Schwartz et al., 2009). Recombinant human MIF (rhMIF) will be purchased from R&D Systems (Minneapolis, Minn.) or generated in house. To induce the production of inflammatory mediators, MM6 cells will be plated at a final concentration of 5×10^5 cells/ml in RPMI 1640 medium containing 1% heat-inactivated low-pyrogen fetal bovine serum, 2 mM GlutaMAX-1,1% non-essential amino acids, 1% sodium pyruvate, 100 units/ml penicillin G and 100 μg/ml streptomycin (Gibco BRL Life Technologies). Cells will be stimulated with 100 ng/ml rhMIF with or without inhibitor for 20 h at 37° C. with 5% CO2. The supernatants were stored at −20° C. until they were assayed. The levels of inflammatory mediators will be determined using commercial ELISA kits from R&D Systems (Minneapolis, Minn.). Human Periperal Blood Mononuclear Cells (PBMC): Human whole blood is collected from healthy donors in sodium-heparinized tubes (BD Biosciences), and peripheral blood mononucleated cells (PBMC) are isolated by Ficoll separation. Cells are washed in Dulbecco's phosphate-buffered saline, resuspended in media (DMEM) containing 5% low endotoxin (<0.3 EU/ml) fetal Bovine Serum (FBS, GIBCO) and 10 units/ml penicillin/streptomycin, and plated at 5×10^5 cells/well in 96-well tissue culture plates. Lipopolysaccharide (LPS, E. coli Serotype 0111:B4, Sigma) or macrophage migration inhibitory factor are pre-incubated for 15 minutes with compounds dissolved in dimethyl sulfoxide (DMSO). The mixtures are then added to cells to yield final concentrations of 1% DMSO, 100 ng/ml LPS and 1 μg/ml MIF. Cells are incubated for overnight at 37° C., 5% CO2. TNF-α production is measured by ELISA (R&D Systems). Cytotoxicity is assessed using the MTT [3-(4,5-dimethylthiazol-2-yl)-2,5-diphenyl tetrazolium bromide assay. Human Rheumatoid Arthritis Synovial Fibroblast (RASF) Cell Line: RASF cells are derived from the inflamed synovium of a RA patient who was undergoing total knee replacement. Cells are cultured in Dulbecco's modified Eagle's medium with 15% FBS, 1% glutamine, and 1% penicillin/streptamycin (all from Gibco (Invitrogen), Gaithersburg, Md.). Experiments are performed with cells between passages 7 to 10, using trypsin with 0.25% ethylene diamine tetraacetic acid (EDTA)(Gibco) to detach cells. Interleukin 1 or macrophage migration inhibitory factor (MIF, GIBCO) are pre-incubated for 15 minutes with compounds dissolved in dimethyl sulfoxide (DMSO). The mixtures are then added to cells to yield final concentrations of 1% DMSO, 1 ng/ml Interleukin 1 or 1 μg/ml MIF. RASFs are incubated with or without stimuli at 37° C. for 20 h for induction of Interelukin 6. Interleukin 6 levels in culture supernatants are quantitated by ELISA. Representative MIF inhibitors were tested in the assay described above, specifically, human peripheral blood mononuclear cells [PBMCs] were isolated and stimulated with either LPS or rhMIF.

The subject of experiment [4] is rhMIF-stimulated PBMCs. The experiment is described as follows: TNF-α production in rhMIF-stimulated PBMCs. Format: cell-based. To be noted: PBMC; human PBMCs, 25 μM compound preincubated 1 hour, rhMIF stimulation, 24 hours. The method, then:
as §1, with “Interleukin 1 or macrophage migration inhibitory factor (MIF, GIBCO) are pre-incubated for 15 minutes with compounds dissolved in dimethyl sulfoxide (DMSO). The mixtures are then added to cells to yield final concentrations of 1% DMSO, 1 ng/ml Interleukin 1 or 1 μg/ml MIF. RASFs are incubated with or without stimuli at 37° C. for 20 h for induction of Interelukin 6.” left out, “Representative MIF inhibitors were tested in the assay described above, specifically, human peripheral blood mononuclear cells [PBMCs] were isolated and stimulated with either LPS or rhMIF.” left out

For `Cn1c(=O)c(C#N)c(NC2CN(C(=O)c3cccs3)C2)c2ccccc21` [XXIV, 1-methyl-2-oxo-4-(1-(thiophene-2-carbonyl)azetidin-3-ylamino)-1,2-dihydroquinoline-3-carbonitrile], the inhibition at 25 µM in experiment [1] is 10 to 50%; in experiment [3], 50 to 70%; in experiment [4], above 70%. In experiment [2], this molecule gave a negative-log IC50 (pIC50) of at least 5.00.

Usually inhibition stands for the change of the read-out against control, counted positive when it falls. Usually pIC50 stands for the IC50 on a negative log10 scale, so that one unit is a factor of ten. Lower therefore signals a large IC50.
